The numbers were not newly measured in US4571403A, “Antianginal medicated compound” (Institut Organicheskoi Khimii Imeni N.D. Zelinskogo …, priority 1984, dated 1986), which cites them from elsewhere.

Structures are written as SMILES. Counter-ions that a name gives are not always drawn.

This data set deals with myocardium / blood circulation. The settings on record: prior art; cited from earlier work.

Turning to `CCCCc1oc2ccccc2c1C(=O)c1cc(I)c(OCCN(CC)CC)c(I)c1` [Cardaron, [2-butyl-3-benzofuranyl]-[4-(2-diethylaminoethoxy)-3,5-diodophenyl]ketone hydrochloride], the adrenergic effect entry is listed as “antiadrenergic preparations with a mixed effect”, the “blood flow / blood supply of ischemized zones of myocardium” value is “no selective effect on blood supply of the ischemized zone of myocardium”, the “contractability of the heart (inotropic effect)” value is “negative inotropic effect on myocardium” and the duration of action result is “short duration of its action”. The side effects entry is given as “affection of eye cornea” and the therapeutic range entry is listed as “narrow therapeutic range”.
For `O=[N+]([O-])OCC(CO[N+](=O)[O-])O[N+](=O)[O-]` [Trinitroglycerol, trinitroglycerol], the “incompatibility with other pharmaceutical preparations” value is on record as “incompatibility with some other pharmaceutical preparations” and the side effects entry is recorded as “bad tolerance of the preparation by certain categories of patients accompanied by strong headaches”.
Regarding `O=C(CCN1CCN2CCCC2C1)N1c2ccccc2Sc2ccc(Cl)cc21` (centres unmarked) [nonachlazine], the adrenergic effect result was “β-adrenostimulating component of the effect on myocardium”; the contraindications entry was “cannot be administered in the case of kidney and liver diseases”; the systemic arterial pressure entry is recorded as “lasting hypertension of the arterial pressure”.
